From patent US20040034003A1, “7-Hydroxy-16alpha-fluoro-5-androsten-17-ones and 7-hydroxy-16alpha-fluoro-5-androstan-17-ones and derivatives thereof” (priority 2002, published 2004)
Where “and” joins values, the source holds several entries; their conditions need not be identical. Identical values can stand only once.

System: TPA-Induced DNA Synthesis in Mouse Epidermis
Test: TPA-induced DNA synthesis in mouse epidermis: [3H]thymidine incorporation and epidermal DNA content of a 2x2 cm2 skin section
Format: in vivo
Details: for μg DNA / corrected cpm / cpm/μg DNA / cpm: individual mouse; for lowest effective dose which suppresses TPA-stimulated epidermal [3H]thymidine incorporation and DNA content: mice
Description: Epidermal hypeplasia is determined by measuring the stimulation in [^3H] thymidine incorporation as well as epidermal DNA content of a 2×2 cm^2 section of skin twenty hours after TPA application.
In prior experiments, 16α-fluoro-5-androsten-17-one was administered in escalating doses by the oral subcutaneous, intraperitoneal, and buccal routes of administration, and the effect on TPA-stimulated epidermal [^3H] thymidine incorporation and epidermal DNA content was determined.
In this experiment, the effect of treating mice subcutaneously (s.c.) with suspensions of 7α-hydroxy-16α-flouro-5-androsten-17-one and suspensions of 16aflouro-5-androsten-17-one were investigated.
Variousl6α-flouro-5-androsten-17 one suspensions (Q) were prepared. The vehicle was 95% saline (0.9% NaCl) and 5% Emulphor. For the 5 mg/kg s.c. suspension, 25.3 mg was suspended in 10 mL of Emulphor-saline. The other suspensions were made by diluting the 5 mg/kg suspension. For the 2.5 mg/kg suspension, 1 mL of 5mg/kg s.c. suspension was diluted to a final volume of 2mL, for the 1 m/kg suspension 1 mL of the 5 mg/kg suspension was made to a total of 5 mL, while for the 0.125 mg/kg suspension, 0.5 mL of the 5 mg/kg suspension was made to a final volume of 20 mL. Magnetic stir bars were added to the suspensions which were kept on a magnetic stirrer.
7α-hydroxy-16α-flouro-5-androsten-17-one was prepared as described hereinabove. For the 5 mg/kg s.c. suspension, 16.3 mg was suspended in 6.5 mL of Emulphor-saline. The other suspensions were made by diluting the 5 mg/kg suspension. For the 2.5 mg/kg, 1 mL of 5 mg/kg suspension was diluted to a final volume of 2 mL, for the 1 mg/kg suspension 1 mL of the 5 mg/kg suspension was made to total 5 mL, while for the 0.125 mg/kg suspension, 0.5 mL of the 5 mg/kg suspension was made up to final volume of 20 mL. Magnetic stir bars were added to the suspensions and the suspensions were kept on a magnetic stirrer.
Female CD-1 mice were obtained from Charles River Laboratories, Wilmington, Mass. at 44-46 days of age. The mice were housed two to three per cage in plastic shoebox cages on Alphacel bedding with 12 hours of alternating light and dark in the CAF Animal Facility, 6th floor, Pharmacy Building. The mice had ad libitum access-to Purina 5015 chow and acidified tap water (pH≦2.6). The mice were allowed to acclimate to the facility for one week prior to use in an experiment. Three days after obtaining the mice, the mice were shaved and weighed. Only those mice showing no hair regrowth were used in the experiment.
Four days after the mice were shaved, they were treated as follows:
The mice were sacrificed 20 hours after treatment by an overdose of CO2. Twenty minutes prior to sacrifice, the mice were injected with 60 μCi of [^3H]thymidine (Amersham Batch 297). The mice were treated with a depilatory to remove any residual hair. A 2×2 cm^2 piece of skin was excised, placed in ice water for 30 seconds, then in 55° C. water for 30 seconds, then ice water again for 30 seconds. The epidermis was scrapped off using a scalpel and the scrapings were placed into ice cold 0.4N TCA (trichloroacetic acid). The scrapings were homogenized using a Tekmar Tissumizer (80% power for 30 seconds). The homogenates were centrifuged for 20 minutes at 3,000×g. The precipitates were washed 3× with 0.2N TCA, and 2× with absolute ethanol. The DNA in each sample was hydrolyzed with 0.5N TCA for 30 minuts at 90°. The tubes were centrifuged for 20 minutes at 3000×g. A 0.2 mL aliquot of each hydrolysate was counted in a LKB Rackbeta scintillation counter using Scintiverse II BD as the counting medium. DNA content was determined by the Burton diphenylamine assay.
Various suspensions were prepared of 16α-fluoro-5-androsten-17-one as follows. The vehicle was 95% saline (0.9% NaCl) and 5% Emulphor. For the 5 mg/kg s.c. suspension, 27.8 mg was suspended in 11.4 mL of Emulphor-saline. The other suspensions were made by diluting the 5 mg/kg suspension. […]

[1] = Example 4, 0.125 mg/kg s.c. 1 h before topical TPA 2 μg, 20 h, Burton diphenylamine assay, 0.125 mg/kg
[2] = Example 4, 0.125 mg/kg s.c. 1 h before topical TPA 2 μg, 20 h
[3] = Example 4, 0.125 mg/kg s.c. 1 h before topical TPA 2 μg, 20 h, 0.125 mg/kg
[4] = Example 4, 0.125 mg/kg s.c. 1 h before topical TPA 2 μg, female CD-1 mice, 20 h after treatment, 0.125 mg/kg
[5] = Example 4, 1 mg/kg s.c. 1 h before topical TPA 2 μg, 20 h
[6] = Example 4, 1 mg/kg s.c. 1 h before topical TPA 2 μg, 20 h, 1 mg/kg
[7] = Example 4, 2.5 mg/kg s.c. 1 h before topical TPA 2 μg, 20 h
[8] = Example 4, 2.5 mg/kg s.c. 1 h before topical TPA 2 μg, 20 h, 2.5 mg/kg
[9] = Example 4, 5 mg/kg s.c. 1 h before topical TPA 2 μg, 20 h
[10] = Example 4, 5 mg/kg s.c. 1 h before topical TPA 2 μg, 20 h, 5 mg/kg
[11] = Example 5, 1 mg/kg s.c. 1 h before topical TPA 2 μg, 20 h, listed as Fluasterone, 1 mg/kg
[12] = Example 5, 2.5 mg/kg s.c. 1 h before topical TPA 2 μg, 20 h, listed as Fluasterone, 2.5 mg/kg
[13] = Example 5, 5 mg/kg s.c. 1 h before topical TPA 2 μg, 20 h, listed as Fluasterone, 5 mg/kg
[14] = prior experiments, escalating doses, oral, subcutaneous, intraperitoneal and buccal routes

In the case of `C[C@]12CCCCC1=C[C@@H](O)[C@@H]1[C@@H]2CC[C@]2(C)C(=O)[C@H](F)C[C@@H]12` [7α-hydroxy-16α-fluoro-5-androsten-17-one, 16α-fluoro-7α-hydroxy-5-androsten-17-one], the “μg DNA” value [1] was 16.8 µg and 15.4 µg, the “cpm/μg DNA (group average ±)” value [2] was 335.1 ± 64.4 cpm/μg DNA and the corrected cpm [3] was 6,394.0 cpm and 4,458.0 cpm. The “cpm/μg DNA” value [3] was 380.6 cpm/μg DNA and 289.5 cpm/μg DNA, the cpm [4] was 6,419.0 cpm and 4,483.0 cpm and the “cpm/μg DNA (group average ±)” value [5] was 245.5 ± 44.1 cpm/μg DNA. The corrected cpm [6] was 3,021.0 cpm and 3,623.0 cpm, the cpm [6] was 3,046.0 cpm and 3,648.0 cpm and the “cpm/μg DNA” value [6] was 214.3 cpm/μg DNA and 276.6 cpm/μg DNA. The “μg DNA” value [6] was 14.1 µg and 13.1 µg, the “cpm/μg DNA (group average ±)” value [7] was 350.2 ± 32.5 cpm/μg DNA and the corrected cpm [8] was 4,478.0 cpm and 3,698.0 cpm. For the same molecule, the cpm [8] was 4,503.0 cpm and 3,723.0. cpm, the “cpm/μg DNA” value [8] was 373.2 cpm/μg DNA and 327.3 cpm/μg DNA and the “μg DNA” value [8] was 12.0 µg and 11.3 µg. For the same molecule, the “cpm/μg DNA (group average ±)” value [9] was 360.3 ± 9.3 cpm/μg DNA, the “μg DNA” value [9] was 11.9 µg and the corrected cpm [10] was 4,366.0 cpm and 4,209.0 cpm. For the same molecule, the cpm [10] was 4,391.0 cpm and 4,234.0 cpm, the “cpm/μg DNA” value [10] was 366.9 cpm/μg DNA and 353.7 cpm/μg DNA and the “effect on [3H]thymidine incorporation and epidermal DNA content (in words)” value (Example 4, s.c., dose range 0.125-5 mg/kg) was “inhibited [^3H] thymidine incorporation and epidermal DNA content over the dose range with no apparent nadir or over stimulation”.
`C[C@]12CCCCC1=CC[C@@H]1[C@@H]2CC[C@]2(C)C(=O)[C@H](F)C[C@@H]12` [Q, 16α-fluoro-5-androsten-17-one, reference compound] was tested, and the “μg DNA” value [1] was 10.0 µg and 9.1 µg, the “cpm/μg DNA (group average ±)” value [2] was 441.5 ± 133.4 cpm/μg DNA and the corrected cpm [3] was 3,471.0 cpm and 4,876.0 cpm. The “cpm/μg DNA” value [3] was 347.1 cpm/μg DNA and 535.8 cpm/μg DNA, the cpm [4] was 3,496.0 cpm and 4,901.0 cpm and the “cpm/μg DNA (group average ±)” value [5] was 236.4 ± 46.5 cpm/μg DNA. The corrected cpm [6] was 1,811.0 cpm and 2,750.1 cpm, the cpm [6] was 1,836.0 cpm and 2,775.1 cpm and the “cpm/μg DNA” value [6] was 203.5 cpm/μg DNA and 269.6 cpm/μg DNA. For the same molecule, the “μg DNA” value [6] was 8.9 µg and 10.2 µg, the “cpm/μg DNA (group average ±)” value [7] was 173.3 ± 11.3 cpm/μg DNA and the corrected cpm [8] was 1,251.0 cpm and 1,207.0 cpm. For the same molecule, the cpm [8] was 1,276.0 cpm and 1,232.0 cpm, the “cpm/μg DNA” value [8] was 181.3 cpm/μg DNA and 165.3 cpm/μg DNA and the “μg DNA” value [8] was 6.9 µg and 7.3 µg. The “cpm/μg DNA (group average ±)” value [9] was 1105.5 ± 28.4 cpm/μg DNA, the corrected cpm [10] was 8,249.0 cpm and 10,018.0 cpm and the cpm [10] was 8,274.0 cpm and 10,043.0 cpm. For the same molecule, the “cpm/μg DNA” value [10] was 1,085.4 cpm/μg DNA and 1,125.6 cpm/μg DNA, the “μg DNA” value [10] was 7.6 µg and 8.9 µg and the “dose producing a nadir in [3H]thymidine incorporation” value (Example 4, s.c.) was 2.5 mg/kg. For the same molecule, the “dose producing an overstimulation of [3H]thymidine incorporation” value (Example 4, s.c.) was 5 mg/kg, the “cpm/μg DNA (group average ±)” value (Example 5, 1 mg/kg s.c. 1 h before topical TPA 2 μg, 20 h) was 170.3 ± 21.7 cpm/μg DNA and the corrected cpm [11] was 2,691.0 cpm and 2,741.0 cpm. The “cpm/μg DNA” value [11] was 185.6 cpm/μg DNA and 154.9 cpm/μg DNA, the “μg DNA” value [11] was 14.5 µg and 17.7 µg and the cpm (Example 5, 1 mg/kg s.c. 1 h before topical TPA 2 μg, female CD-1 mice, 20 h, listed as Fluasterone, 1 mg/kg) was 2,717.0 cpm and 2,767.0 cpm. The “cpm/μg DNA (group average ±)” value (Example 5, 2.5 mg/kg s.c. 1 h before topical TPA 2 μg, 20 h) was 81.4 ± 12.0 cpm/μg DNA, the corrected cpm [12] was 496.0 cpm and 566.0 cpm and the cpm [12] was 522.0 cpm and 592.0 cpm. The “cpm/μg DNA” value [12] was 72.9 cpm/μg DNA and 89.8 cpm/μg DNA, the “μg DNA” value [12] was 6.8 µg and 6.3 µg and the “cpm/μg DNA (group average ±)” value (Example 5, 5 mg/kg s.c. 1 h before topical TPA 2 μg, 20 h) was 258.8 ± 12.0 cpm/μg DNA. For the same molecule, the corrected cpm [13] was 2,192.0 cpm and 1,777.0 cpm, the cpm [13] was 2,218.0 cpm and 1,803.0 cpm and the “cpm/μg DNA” value [13] was 267.3 cpm/μg DNA and 250.3 cpm/μg DNA. For the same molecule, the “μg DNA” value [13] was 8.2 µg and 7.1 µg, the “dose producing a nadir in [3H]thymidine incorporation” value (Example 5, s.c.) was 2.5 mg/kg and the “dose producing an overstimulation of [3H]thymidine incorporation” value (Example 5, s.c.) was 5 mg/kg. The “lowest effective dose which suppresses TPA-stimulated epidermal [3H]thymidine incorporation and DNA content” value (prior experiments, buccal route) was 2.5 to 5 mg/kg, the “dose response for [3H]thymidine incorporation (in words)” value [14] was “U-shaped dose response” and the “epidermal DNA content as the dose increased (in words)” value [14] was “remained suppressed”. The “lowest effective dose which suppresses TPA-stimulated epidermal [3H]thymidine incorporation and DNA content” value (prior experiments, intraperitoneal route) was 5 mg/kg, the “lowest effective dose which suppresses TPA-stimulated epidermal [3H]thymidine incorporation and DNA content” value (prior experiments, oral route) was 200 mg/kg and the “lowest effective dose which suppresses TPA-stimulated epidermal [3H]thymidine incorporation and DNA content” value (prior experiments, subcutaneous route) was 2.5 mg/kg. For the same molecule, the “TPA-induced epidermal hyperplasia in mice (in words)” value (prior finding) was “inhibits”.
